The structures appear in SMILES notation. Structures can show the parent of a compound that is named as a salt.

By Ki is commonly meant the equilibrium dissociation constant of an inhibitor or competing ligand from its target. A lower Ki goes with tighter binding. The melting point is the temperature of the solid-liquid transition.

Chain of human adenosine A2A receptors (P29274 whole entry): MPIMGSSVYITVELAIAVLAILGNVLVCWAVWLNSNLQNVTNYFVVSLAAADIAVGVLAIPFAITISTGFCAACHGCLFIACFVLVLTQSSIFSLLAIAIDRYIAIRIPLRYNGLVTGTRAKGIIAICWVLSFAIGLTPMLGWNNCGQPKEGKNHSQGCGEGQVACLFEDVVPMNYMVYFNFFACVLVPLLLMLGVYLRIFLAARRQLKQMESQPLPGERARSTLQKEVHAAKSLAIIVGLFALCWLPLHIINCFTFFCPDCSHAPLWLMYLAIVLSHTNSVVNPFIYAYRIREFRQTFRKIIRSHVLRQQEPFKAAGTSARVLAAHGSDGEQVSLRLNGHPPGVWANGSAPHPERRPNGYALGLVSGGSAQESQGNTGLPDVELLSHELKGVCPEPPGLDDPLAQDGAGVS

One data set has as its target human adenosine A2A receptors (Homo sapiens, UniProt P29274). Put plainly: Binding affinities at hA2A receptors, displacement of [3H]-CGS 21680. As to conditions: displacement of radioligand [3H]-CGS 21680, in vitro. (In general: In a radioligand displacement assay an active substance lowers the binding of a labelled ligand.)
In turn, `FC(F)(F)c1cc([C@H]2OCN3CCCC[C@@H]23)c2cccc(C(F)(F)F)c2n1` [Example 11, (1R, 8aS)-1,5,6,7,8,8a-Hexahydro-1-(2,8-bis(trifluoromethyl)-4-quinolinyl)-3H-oxazolo[3,4-a]pyridine] registered a Ki of 0.063 µM.

Regarding `CN1CCCC[C@H]1[C@H](O)c1cc(C(F)(F)F)nc2c(C(F)(F)F)cccc12` [Example 7, (11R, 2′S)-α-(1-Methyl-2-piperidinyl)-2,8-bis(trifluoromethyl)-4-quinolinemethanol], affinity was put at a Ki of 0.045 µM.

`CC(C)CNCC(O)c1cc(C(F)(F)F)nc2c(C(F)(F)F)cccc12` (stereo not drawn) [Example 25, α-Isobutylaminomethyl-2,8-bis(trifluoromethyl)-4-quinolinemethanol]: the affinity, expressed as Ki, was 1.27 µM.

In turn, `O[C@@H](c1cc(C(F)(F)F)nc2ccccc12)[C@H]1CCCCN1` (racemic) [Example 39, (11S*, 2′R*)-α-(2-Piperidinyl)-2-trifluoromethyl-4-quinolinemethanol (Racemic)] registered a Ki of 0.404 µM.

Turning to `COc1cc([C@@H](O)[C@@H]2CCCCN2)c2cccc(C)c2n1` (racemic) [Example 48, (11R*, 2′S*)-2-Methoxy-8-methyl-α-(2-piperidinyl)-4-quinolinemethanol (Racemic)], the affinity, expressed as Ki, was 1.1 µM.

`CC(=O)N1CCCC[C@H]1[C@H](O)c1cc(C(F)(F)F)nc2c(C(F)(F)F)cccc12` [Example 5, (11R, 2′S)-α-(1-Acetyl-2-piperidinyl)-2,8-bis(trifluoromethyl)-4-quinolinemethanol] yielded a Ki of 1.74 µM.

In the case of `OC(CNc1ccccc1)c1cc(C(F)(F)F)nc2c(C(F)(F)F)cccc12` (stereo not drawn) [Example 23, α-Phenylaminomethyl-2,8-bis(trifluoromethyl)-4-quinolinemethanol], the Ki came out at 2.73 µM.

The compound `OC(CNC1CCC1)c1cc(C(F)(F)F)nc2c(C(F)(F)F)cccc12` (stereo not drawn) [Example 26, α-Cyclobutylaminomethyl-2,8-bis(trifluoromethyl)-4-quinolinemethanol] returned a Ki of 2.8 µM.

Test system in the next data set: not given
Experiment: not given
Settings: not given
Take `OC(CN1CCCCC1)c1cc(C(F)(F)F)nc2c(C(F)(F)F)cccc12` (stereo not drawn) [Example 20, α-Piperidinomethyl-2,8-bis(trifluoromethyl)-4-quinolinemethanol]: the melting point is 129.5 °C.

`COC(CNCc1ccccc1)c1cc(C(F)(F)F)nc2c(C(F)(F)F)cccc12` (stereo not drawn) (as salt: hydrochloride) [Example 30, N-Benzyl-β-methoxy-2,8-bis(trifuoromethyl)-4-quinolineethanamine Hydrochloride] had a melting point of 232 to 233 °C.

With `Nc1cc([C@@H](O)[C@@H]2CCCCN2)c2ccccc2n1` (relative stereo) (as salt: salt), the melting point was 225 °C (dec.).

On to `Cc1cccc2c([C@@H](O)[C@@H]3CCCCN3)cc(O)nc12` (relative stereo), for which the melting point is 225 °C (dec.).

With `O[C@H](c1cc(C(F)(F)F)nc2c(C(F)(F)F)cccc12)[C@@H]1CCCN1` (as salt: hydrochloride) [Example 42, (11R, 2′S)-α-(2-pyrrolidinyl)-2,8-bis(trifuoromethyl)-4-quinolinemethanol Hydrochloride], the melting point is 230 °C (dec.).

In the case of `O[C@@H](c1cc(C(F)(F)F)nc2c(C(F)(F)F)cccc12)[C@@H]1CCCN1` (as salt: hydrochloride) [Example 45, (11S, 2′S)-α-(2-Pyrrolidinyl)-2,8-bis(trifluoromethyl)-4-quinolinemethanol Hydrochloride], the melting point is 246 °C (dec.).

Consider `OC(CN1CCOCC1)c1cc(C(F)(F)F)nc2c(C(F)(F)F)cccc12` (stereo not drawn) [Example 18, α-Morpholinomethyl-2,8-bis(trifluoromethyl)-4-quinolinemethanol], for which the melting point fell in the range of 129 to 130 °C.

`OC1(c2cc(C(F)(F)F)nc3c(C(F)(F)F)cccc23)CNC1` [Example 31, 3-(2,8-Bis(Trifluoromethyl)-4-quinolinyl)-3-azetidinol]: the melting point was 201 °C (dec.).
